Measured values as given in PMC6257622, “Discovery and Structure–Activity-Relationship Study of N-Alkyl-5-hydroxypyrimidinone Carboxamides as Novel Antitubercular Agents Targeting Decaprenylphosphoryl-β-D-ribose 2′-Oxidase” (Journal of Medicinal Chemistry, 2018).
≈ marks a conversion by molar mass, not a printed value. Where “and” joins values, the source holds several entries; their conditions need not be identical. Equal entries are not always repeated. Where two headings read alike, the source gives them in different places.

Legend:
HepG2 cells = assay: in vitro; type: cell-based
in vitro = type: cell-based; details: human; HepG2 cells in DMEM/10% FBS supplemented with glucose; read-out: Cytotoxicity (IC50) Glucose
Mtb strain H37Rv = assay: MIC determination against Mtb H37Rv in different media; type: cell-based, Mycobacterium tuberculosis; details: for antitubercular activity (in words): SAR discussion
[1] = system: anaerobic nonreplicating Mtb cells; type: cell-based, Mycobacterium tuberculosis; details: 7 days exposure, 1–50× aerobic MIC, Wayne model
recA and radA reporters = type: cell-based, Mycobacterium tuberculosis
Mtb cydC::aph strain = type: cell-based, Mycobacterium tuberculosis
[2] = C57Bl/6 mice, oral, 10 mg/kg single dose
[3] = system: Mtb in J774 murine macrophages; assay: Intracellular killing assay in murine macrophage J774; details: 1–50-fold MIC, 4 or 7 days
Protocol: For the ex vivo efficacy test, J774 cells (5 × 10^5 cells/well) were seeded in flat-bottom 24-well plates (Corning Inc.) in DMEM GlutaMAX (Gibco/ThermoFisher Scientific) supplemented with 10% fetal-bovine serum, 20 mM HEPES, and 0.5 mM sodium pyruvate (hereafter abbreviated as DMEM/FBS). Cells were infected with Mtb (5 × 10^5 cells/well, MOI 1) for 24 h; this was followed by medium removal and washing (2×) with an equal volume of Dulbecco’s PBS. Infected cells were fed DMEM/FBS and exposed to test compounds at 1×, 10×, 20×, and 50× MIC in medium (500 μL/well). Cells were incubated at 37 °C with 95% humidity and 5% CO2 in an incubator for 7 days. The medium was changed every 4 days. After 4 and 7 days of incubation, 0.1% SDS was added to each well to lyse the J774 cells. After 5 min, the lysate was thoroughly mixed and diluted in 7H9/ADC, and appropriate dilutions were plated in duplicate on 7H11/OADC plates.

actively replicating Mtb = type: cell-based, Mycobacterium tuberculosis
iniBAC promoter = type: cell-based, Mycobacterium tuberculosis
[4] = HepG2 cells in DMEM/10% FBS with galactose (mitochondrial toxicity), read-out: Cytotoxicity (IC50) Galactose
[5] = Mycobacterium tuberculosis, H37RV, Mtb H37Rv in GAST (Table 2), read-out: MIC GAST
[6] = Mycobacterium tuberculosis, H37RV, supplementary CSV, read-out: MIC in 7H9/ADC
[7] = Mycobacterium tuberculosis, H37RV, supplementary CSV, read-out: MIC in GAST/Fe
[8] = Mycobacterium tuberculosis, H37RV, read-out: MIC 7H9/ADC
[9] = Mtb H37Rv in GAST (Table 2), read-out: MIC GAST
[10] = HepG2 cells in DMEM/10% FBS supplemented with glucose, read-out: Cytotoxicity (IC50) Glucose
[11] = supplementary CSV, read-out: MIC in 7H9/ADC
[12] = supplementary CSV, read-out: MIC in GAST/Fe

Row | Molecule | IC50 (HepG2 cells; [4]) [µM] | IC50 (in vitro) [µM] | MIC (Mtb strain H37Rv; [5]) [µM] | MIC (Mtb strain H37Rv; [6]) [µM] | MIC (Mtb strain H37Rv; [7]) [µM] | MIC (Mtb strain H37Rv; [8]) [µM] | antitubercular activity (in words) (Mtb strain H37Rv) | other results
1 | Cn1c(Cc2ccccc2C(F)(F)F)nc(C(=O)CCc2ccccc2)c(O)c1=O [Compound P18, 5-Hydroxy-3-methyl-6-(3-phenylpropanoyl)-2-(2-(trifluoromethyl)benzyl)pyrimidin-4(3H)-one] | > 100 | > 100 | 12.5 | 100 | 12.5 | 100 | – | –
2 | Cn1c(Cc2ccccc2C(F)(F)F)nc(C(=O)NCc2ccccc2)c(O)c1=O [Compound P01, N-Benzyl-5-hydroxy-1-methyl-6-oxo-2-(2-(trifluoromethyl)benzyl)-1,6-dihydropyrimidine-4-carboxamide] | > 100 | > 100 | 0.59 | 4.7 | 0.59 | 4.7 ± 1.5 | – | bactericidal activity against anaerobic nonreplicating Mtb [1]: lacked bactericidal activity; reporter-gene assay DNA damage (recA and radA reporters): no induction; MIC (Mtb strain H37Rv; Mycobacterium tuberculosis, H37RV, Mtb H37Rv, GAST medium (Table 1), read-out: MIC GAST): 0.4 ± 0.2 µM; MIC (Mtb strain H37Rv; Mycobacterium tuberculosis, H37RV, pH 6, read-out: MIC nitrite/butyrate): 12.5 µM; MIC (Mtb strain H37Rv; Mycobacterium tuberculosis, H37RV, read-out: MIC Chol): 1.6 µM; MIC (Mtb strain H37Rv; Mycobacterium tuberculosis, H37RV, read-out: MIC GBSA or DBSA): 3.1 µM; MIC (Mtb strain H37Rv; Mycobacterium tuberculosis, H37RV, read-out: MIC in 7H9/ADC): ~1.9 µg/mL; MIC (Mtb strain H37Rv; Mycobacterium tuberculosis, H37RV, read-out: MIC, DprE1 wild type): 3.13 µM; MIC (Mtb strain H37Rv; read-out: MIC 7H9/ADC): 4.7 µM; MIC CydKO (Mtb cydC::aph strain): 6.2 µM (≈ 2.59 µg/mL); AUC [2]: 1060 ng·h/mL; CL [2]: 9.48; Tmax [2]: 1.0 h; Vd [2]: 33.7 L/kg; Cmax ([2]; suspension): 250 ng/mL; T1/2 ([2]; 10 mg/kg): 4 h and 4.1 h; activity against Mtb replication in J774 murine macrophages [3]: active; logarithmic reduction in colony-forming units (actively replicating Mtb): 1–2 log; reporter-gene assay cell wall (iniBAC promoter): positive
3 | Cn1c(Cc2ccccc2C(F)(F)F)nc(C(=O)NCc2ccc(F)cc2)c(O)c1=O [Compound P10, N-(4-Fluorobenzyl)-5-hydroxy-1-methyl-6-oxo-2-(2-(trifluoromethyl)benzyl)-1,6-dihydropyrimidine-4-carboxamide] | > 100 | > 100 | 2.3 | 18.8 | 2.3 | 18.8 | – | –
4 | O=C(NCc1ccccc1)c1nc(Cc2ccccc2C(F)(F)F)[nH]c(=O)c1O [Compound P14, N-Benzyl-5-hydroxy-6-oxo-2-(2-(trifluoromethyl)benzyl)-1,6-dihydropyrimidine-4-carboxamide] | > 100 | > 100 | > 100 | > 100 | > 100 | > 100 | not tolerated | –
5 | CCn1c(Cc2ccccc2C(F)(F)F)nc(C(=O)NCc2ccccc2)c(O)c1=O [Compound P04, N-Benzyl-1-ethyl-5-hydroxy-6-oxo-2-(2-(trifluoromethyl)benzyl)-1,6-dihydropyrimidine-4-carboxamide] | > 100 | > 100 | 0.4 | 2.3 | 0.39 | 2.3 | – | MIC (Mtb strain H37Rv; [9]): 0.39 µM; activity against Mtb replication in J774 murine macrophages [3]: active
6 | N-Benzyl-5-hydroxy-6-methoxy-2-(2-(trifluoromethyl)benzyl)pyrimidine-4-carboxamide [Compound P16] | > 100 | – | – | – | – | – | inactive | IC50 (HepG2 cells; [10]): > 100 µM; MIC (Mtb strain H37Rv; [9]): 37.5 µM; MIC (Mtb strain H37Rv; read-out: MIC 7H9/ADC): >100 µM; MIC (Mtb strain H37Rv; [11]): >100 µM; MIC (Mtb strain H37Rv; [12]): 37.5 µM
7 | CN(Cc1ccccc1)C(=O)c1nc(Cc2ccccc2C(F)(F)F)n(C)c(=O)c1O [Compound P12, N-Benzyl-5-hydroxy-N,1-dimethyl-6-oxo-2-(2-(trifluoromethyl)benzyl)-1,6-dihydropyrimidine-4-carboxamide] | > 100 | > 100 | > 100 | > 100 | > 100 | > 100 | loss of activity | –
8 | Cn1c(Cc2ccccc2C(F)(F)F)nc(C(=O)NCc2ccccn2)c(O)c1=O [Compound P07, 5-Hydroxy-1-methyl-6-oxo-N-(pyridin-2-ylmethyl)-2-(2-(trifluoromethyl)benzyl)-1,6-dihydropyrimidine-4-carboxamide] | > 100 | > 100 | 1.2 | 3.1 | 1.2 | 3.1 | – | activity against Mtb replication in J774 murine macrophages [3]: active
9 | Cn1c(Cc2ccccc2C(F)(F)F)nc(C(=O)NCc2ccc3c(c2)OCO3)c(O)c1=O [Compound P11, N-(Benzo[d][1,3]dioxol-5-ylmethyl)-5-hydroxy-1-methyl-6-oxo-2-(2-(trifluoromethyl)benzyl)-1,6-dihydropyrimidine-4-carboxamide] | > 100 | > 100 | 37.5 | > 100 | 37.5 | > 100 | – | –
10 | N-Benzyl-2-ethyl-5-hydroxy-1-methyl-6-oxo-1,6-dihydropyrimidine-4-carboxamide [Compound P03] | > 100 | – | – | – | – | – | complete loss of potency | IC50 (HepG2 cells; [10]): > 100 µM; MIC (Mtb strain H37Rv; [9]): >100 µM; MIC (Mtb strain H37Rv; read-out: MIC 7H9/ADC): >100 µM; MIC (Mtb strain H37Rv; [11]): >100 µM; MIC (Mtb strain H37Rv; [12]): >100 µM
11 | Cn1c(Cc2ccccc2C(F)(F)F)nc(C(=O)NCc2cccnc2)c(O)c1=O [Compound P08, 5-Hydroxy-1-methyl-6-oxo-N-(pyridin-3-ylmethyl)-2-(2-(trifluoromethyl)benzyl)-1,6-dihydropyrimidine-4-carboxamide] | > 100 | > 100 | 4.7 | 18.8 | 4.7 | 18.8 | – | –
12 | Cn1c(Cc2ccccc2C(F)(F)F)nc(C(=O)Nc2ccccc2)c(O)c1=O [Compound P05, 5-Hydroxy-1-methyl-6-oxo-N-phenyl-2-(2-(trifluoromethyl)benzyl)-1,6-dihydropyrimidine-4-carboxamide] | > 100 | > 100 | 1.6 | 18.8 | 1.6 | 18.8 | – | fold increase in MIC (reduced potency) compared with P01 (Mtb strain H37Rv): around 4 fold
13 | CC(NC(=O)c1nc(Cc2ccccc2C(F)(F)F)n(C)c(=O)c1O)c1ccccc1 (centres unmarked) [Compound P13, 5-Hydroxy-1-methyl-6-oxo-N-(1-phenylethyl)-2-(2-(trifluoromethyl)benzyl)-1,6-dihydropyrimidine-4-carboxamide] | > 100 | > 100 | > 100 | > 100 | > 100 | > 100 | loss of activity | –
14 | CC(c1ccccc1C(F)(F)F)c1nc(C(=O)NCc2ccccc2)c(O)c(=O)n1C (centres unmarked) [Compound P15, N-Benzyl-5-hydroxy-1-methyl-6-oxo-2-(1-(2-(trifluoromethyl)phenyl)ethyl)-1,6-dihydropyrimidine-4-carboxamide] | > 100 | > 100 | 3.1 | 18.3 | 3.1 | 18.3 | – | fold increase in MIC (reduced potency) compared with P01 (Mtb strain H37Rv): 5 fold
15 | Cn1c(Cc2ccccc2C(F)(F)F)nc(C(=O)NCC2CCCCC2)c(O)c1=O [Compound P06, N-(Cyclohexylmethyl)-5-hydroxy-1-methyl-6-oxo-2-(2-(trifluoromethyl)benzyl)-1,6-dihydropyrimidine-4-carboxamide] | > 100 | > 100 | 12.5 | > 100 | 12.5 | > 100 | – | –
16 | Cn1c(Cc2ccccc2C(F)(F)F)nc(C(=O)NCc2ccccc2F)c(O)c1=O [Compound P09, N-(2-Fluorobenzyl)-5-hydroxy-1-methyl-6-oxo-2-(2-(trifluoromethyl)benzyl)-1,6-dihydropyrimidine-4-carboxamide] | > 100 | > 100 | 0.59 | 4.7 | 0.59 | 4.7 | – | fold more potent than regioisomer P10 (Mtb strain H37Rv; o-F versus p-F): > 4 fold; activity against Mtb replication in J774 murine macrophages [3]: active
17 | Cn1c(Cc2ccccc2)nc(C(=O)NCc2ccccc2)c(O)c1=O [Compound P02, N,2-Dibenzyl-5-hydroxy-1-methyl-6-oxo-1,6-dihydropyrimidine-4-carboxamide] | > 100 | > 100 | 3.1 | 9.4 | 3.1 | 9.4 | – | –
18 | COc1c(C(=O)NCc2ccccc2)nc(Cc2ccccc2C(F)(F)F)n(C)c1=O [Compound P17, N-Benzyl-5-methoxy-1-methyl-6-oxo-2-(2-(trifluoromethyl)benzyl)-1,6-dihydropyrimidine-4-carboxamide] | > 100 | > 100 | > 100 | > 100 | > 100 | > 100 | inactive | –
